pEC50, pIC50, pKi: −log10 of the molar value. Values joined by “and” are separate entries in the source; they are usually repeats but may differ in a detail not shown here. Equal values may be shown once. Active and inactive are the calls of the source. The rule behind the calls is not given here.

Test [1] has as its system P388. The test is described as follows: Compound was tested for % increase in life span of P388 tumor. In kind it is functional, Mus musculus.
The subject of test [2] is P388. The test is described as follows: Compound was tested for % increase in life span of adriamycin resistant P388 tumor. The test is classed as functional, Mus musculus.
Test [3] deals with P388. The test is described as follows: The compound was evaluated in vitro for the inhibition of murine leukemia P388D1 cell proliferation. In kind it is functional, cell-based. The conditions noted are these: Mus musculus.
Test [4] has as its target T1, Tubulin alpha chain (Sus scrofa, UniProt P02550). The test is described as follows: Compound was tested for competitive inhibition with radioligand [3H]colchicine at colchicine site of mammalian tubulin.
In test [5] the test system is P388. The test is described as follows: Compound was tested for % increase in life span of vincristine resistant P388 tumor. In kind it is functional, Mus musculus.
For test [6], the system named is P388. The test is described as follows: The compound was evaluated in vitro for the inhibition of P388D1 cell colony formation. In kind it is functional, cell-based. The conditions noted are these: Mus musculus.
The test system of test [7] is P388. The test is described as follows: The compound was evaluated in vitro for the P388 cell spindle disruption.; 0.006-0.009. In kind it is functional, cell-based. The conditions noted are these: Mus musculus.
Test [8] concerns the target T1, Tubulin alpha chain. The experiment in a line: In vitro mammalian brain tubulin polymerization using standard assay. The test is classed as functional.
Test [9] deals with Tubulin alpha chain (Sus scrofa) (UniProt P02550). The experiment in a line: Compound was tested for competitive inhibition with radioligand [3H]colchicine or [3H]vinblastine at alkaloid site on mammalian tubulin; No effect.
Chain of Tubulin alpha chain (Sus scrofa) (P02550 whole entry, looked up): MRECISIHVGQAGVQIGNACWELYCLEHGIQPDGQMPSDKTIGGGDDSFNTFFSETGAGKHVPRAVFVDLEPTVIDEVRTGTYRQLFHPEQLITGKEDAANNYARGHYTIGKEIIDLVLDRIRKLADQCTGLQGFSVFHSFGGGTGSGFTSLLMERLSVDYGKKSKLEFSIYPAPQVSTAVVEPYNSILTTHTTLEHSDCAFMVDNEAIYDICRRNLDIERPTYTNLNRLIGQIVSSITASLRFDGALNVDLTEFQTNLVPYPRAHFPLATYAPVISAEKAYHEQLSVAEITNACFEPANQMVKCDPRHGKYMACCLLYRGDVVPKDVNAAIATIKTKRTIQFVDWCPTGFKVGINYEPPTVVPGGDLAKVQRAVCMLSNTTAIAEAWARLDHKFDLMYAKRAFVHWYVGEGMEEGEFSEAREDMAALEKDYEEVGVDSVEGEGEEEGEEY
Test [10] concerns P388. The experiment in a line: The compound was evaluated in vitro for the P388 cell spindle disruption.; 0.02-0.04. The settings on record: Mus musculus. The test is classed as functional, cell-based.
Test [11] deals with T1, Tubulin alpha chain. The test is described as follows: The compound was evaluated in vitro for the mammalian brain tubulin polymerization using standard assay. The test is classed as functional.

T1 sequence (P02550 whole entry, looked up): as above

As a reminder, the ILS is the gain in survival time of treated over control animals, in per cent. A higher ILS goes with much gain in survival. As to `COc1cc([C@@H]2c3cc4c(cc3[C@@H](O[C@@H]3O[C@@H]5CO[C@@H](C)O[C@H]5[C@H](O)[C@H]3O)[C@H]3COC(=O)[C@H]23)OCO4)cc(OC)c1O` [ETOPOSIDE], the increase in life span (ILS) in test [1] is listed as approximately 80%; in test [2] it was approximately 20%.

One may read the pIC50 as the IC50 on a negative log10 scale, so that one unit is a factor of ten. One may read the pKi as −log10 of the Ki, conventionally taken in molar units. In general, pEC50 refers to the negative decadic logarithm of the EC50, by convention in mol/L. A higher pEC50 goes with a small EC50. For `COC(=O)Nc1cn2nc(OCc3cc(OC)c(OC)c(OC)c3)ccc2n1`, the pIC50 in test [3] was 8.05; in test [6], 7.89; in [8], 6.51. This compound also showed a pKi in test [4] of 6.12. Further, the ILS is approximately 170% in [5]; ~147% and ~120% in test [1]; approximately 110% in [2]. Further, in [7], the pEC50 is 8.22. In addition, the result in [9] was inactive.

For the compound `COc1cccc2c1C(=O)c1c(O)c3c(c(O)c1C2=O)C[C@@](O)(C(=O)CO)C[C@@H]3O[C@H]1C[C@H](N)[C@H](O)[C@H](C)O1` [DOXORUBICIN], the ILS is on record as approximately 120% in [1] and approximately 25% in test [2].

`CC[C@]1(O)C[C@H]2CN(CCc3c([nH]c4ccccc34)[C@@](C(=O)OC)(c3cc4c(cc3OC)N(C=O)[C@H]3[C@@](O)(C(=O)OC)[C@H](OC(C)=O)[C@]5(CC)C=CCN6CC[C@]43[C@@H]65)C2)C1` [VINCRISTINE] gave a pEC50 in test [10] of 7.70. Also, the pIC50 is 8.33 in test [3], 6.72 in test [6] and 6.66 in [11]. Moreover, the increase in lifespan (ILS) in [5] is given as approximately 10%; in test [1], approximately 130%; in [2] it was approximately 5%.

Take `CC[C@]1(O)C[C@@H]2CN(CCc3c([nH]c4ccccc34)[C@@](C(=O)OC)(c3cc4c(cc3OC)N(C)[C@H]3[C@@](O)(C(=O)OC)[C@H](OC(C)=O)[C@]5(CC)C=CCN6CC[C@]43[C@@H]65)C2)C1` [VINBLASTINE]: the pIC50 was 8.77 in test [3] and 8.09 in [6]. Besides, the increase in lifespan (ILS) in test [5] was approximately 50%; in test [1], approximately 100%.

Regarding `COc1cc2c(c(OC)c1OC)-c1ccc(OC)c(=O)cc1[C@@H](NC(C)=O)CC2` [COLCHICINE], the pIC50 in test [3] is 9.21; in test [6], 7.15. Besides, the values for the ILS in test [5] and in test [1] were approximately 75% and approximately 85%, respectively.

The record behind these values is ChEMBL document CHEMBL1126349, “Synthesis and biological properties of 1069C: a new synthetic antitumour agent with very low cross-resistance potential” (Bioorg Med Chem Lett, 1992).
